Assay results taken from ChEMBL document CHEMBL4028852, “Design of a Chemical Probe for the Bromodomain and Plant Homeodomain Finger-Containing (BRPF) Family of Proteins” (J Med Chem, 2017).

Key:
Peregrin = molecular target: T1, Peregrin (Homo sapiens, UniProt P55201); experiment: Inhibition of human BRPF1 (627 to 740 residues) expressed in Escherichia coli BL21 after 1 hr by BROMOscan assay
T1 sequence (P55201 whole entry): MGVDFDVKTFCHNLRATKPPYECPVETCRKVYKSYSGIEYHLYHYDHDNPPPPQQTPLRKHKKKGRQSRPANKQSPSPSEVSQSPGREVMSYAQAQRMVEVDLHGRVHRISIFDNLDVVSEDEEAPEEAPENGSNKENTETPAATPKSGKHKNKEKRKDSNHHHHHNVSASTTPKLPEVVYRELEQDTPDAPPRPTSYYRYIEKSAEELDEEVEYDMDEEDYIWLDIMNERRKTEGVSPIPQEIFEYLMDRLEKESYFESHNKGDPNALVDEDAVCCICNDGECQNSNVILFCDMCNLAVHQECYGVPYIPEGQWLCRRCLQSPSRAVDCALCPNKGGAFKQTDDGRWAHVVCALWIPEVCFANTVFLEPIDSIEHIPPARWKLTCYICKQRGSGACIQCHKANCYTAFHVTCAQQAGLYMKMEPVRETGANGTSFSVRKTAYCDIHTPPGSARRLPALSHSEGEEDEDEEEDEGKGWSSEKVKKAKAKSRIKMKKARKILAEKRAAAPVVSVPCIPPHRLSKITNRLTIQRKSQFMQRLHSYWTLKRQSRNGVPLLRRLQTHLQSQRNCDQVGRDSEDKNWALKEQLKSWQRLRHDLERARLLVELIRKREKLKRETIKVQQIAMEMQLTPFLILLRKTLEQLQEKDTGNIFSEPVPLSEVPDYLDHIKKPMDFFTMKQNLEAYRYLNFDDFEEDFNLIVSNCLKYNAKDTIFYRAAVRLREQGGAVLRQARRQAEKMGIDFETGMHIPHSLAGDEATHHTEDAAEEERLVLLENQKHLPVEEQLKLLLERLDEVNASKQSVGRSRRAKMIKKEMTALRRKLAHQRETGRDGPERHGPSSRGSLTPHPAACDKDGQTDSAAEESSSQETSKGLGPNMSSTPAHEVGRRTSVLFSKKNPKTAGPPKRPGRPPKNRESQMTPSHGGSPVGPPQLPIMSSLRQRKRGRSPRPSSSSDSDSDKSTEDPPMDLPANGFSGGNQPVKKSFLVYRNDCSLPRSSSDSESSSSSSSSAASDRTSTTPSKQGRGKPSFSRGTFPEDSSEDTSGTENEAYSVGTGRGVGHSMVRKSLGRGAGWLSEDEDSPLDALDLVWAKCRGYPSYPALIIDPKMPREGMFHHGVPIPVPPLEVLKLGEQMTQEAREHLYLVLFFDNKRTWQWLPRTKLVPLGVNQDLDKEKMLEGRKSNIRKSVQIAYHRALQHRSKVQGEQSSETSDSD

[1] = molecular target: T2, Bromodomain-containing protein 1 (Homo sapiens, UniProt O95696); experiment: Inhibition of human BRPF2 (556 to 688 residues) expressed in Escherichia coli BL21 after 1 hr by BROMOscan assay
T2 sequence (O95696 whole entry): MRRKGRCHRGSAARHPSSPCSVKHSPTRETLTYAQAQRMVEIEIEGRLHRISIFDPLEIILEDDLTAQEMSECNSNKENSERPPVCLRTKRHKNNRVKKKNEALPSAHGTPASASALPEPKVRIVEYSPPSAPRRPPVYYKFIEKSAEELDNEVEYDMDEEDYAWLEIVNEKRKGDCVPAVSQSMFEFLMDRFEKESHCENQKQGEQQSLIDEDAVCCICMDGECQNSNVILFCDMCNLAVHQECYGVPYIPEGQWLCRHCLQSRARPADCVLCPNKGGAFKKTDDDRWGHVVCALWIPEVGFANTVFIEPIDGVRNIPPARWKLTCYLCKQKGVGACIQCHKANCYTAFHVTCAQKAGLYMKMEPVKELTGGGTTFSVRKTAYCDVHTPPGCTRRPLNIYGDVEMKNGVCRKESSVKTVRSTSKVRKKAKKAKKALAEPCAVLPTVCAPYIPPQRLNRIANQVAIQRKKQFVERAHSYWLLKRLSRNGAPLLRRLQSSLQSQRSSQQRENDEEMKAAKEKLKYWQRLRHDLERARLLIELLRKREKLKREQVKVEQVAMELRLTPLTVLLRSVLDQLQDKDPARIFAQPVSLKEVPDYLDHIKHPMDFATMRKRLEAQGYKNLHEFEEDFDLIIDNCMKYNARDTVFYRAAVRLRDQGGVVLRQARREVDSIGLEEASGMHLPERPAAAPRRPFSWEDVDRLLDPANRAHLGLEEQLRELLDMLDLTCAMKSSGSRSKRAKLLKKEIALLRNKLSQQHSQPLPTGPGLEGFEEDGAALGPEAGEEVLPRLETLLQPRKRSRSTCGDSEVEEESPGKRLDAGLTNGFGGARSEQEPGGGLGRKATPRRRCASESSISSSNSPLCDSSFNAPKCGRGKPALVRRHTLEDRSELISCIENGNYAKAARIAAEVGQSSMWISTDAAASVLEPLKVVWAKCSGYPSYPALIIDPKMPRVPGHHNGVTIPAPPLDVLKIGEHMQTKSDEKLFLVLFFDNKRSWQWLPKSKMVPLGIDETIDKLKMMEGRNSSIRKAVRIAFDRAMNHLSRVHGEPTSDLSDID

[2] = molecular target: T3, Bromodomain-containing protein 9 (Homo sapiens, UniProt Q9H8M2)
T3 sequence (Q9H8M2 whole entry): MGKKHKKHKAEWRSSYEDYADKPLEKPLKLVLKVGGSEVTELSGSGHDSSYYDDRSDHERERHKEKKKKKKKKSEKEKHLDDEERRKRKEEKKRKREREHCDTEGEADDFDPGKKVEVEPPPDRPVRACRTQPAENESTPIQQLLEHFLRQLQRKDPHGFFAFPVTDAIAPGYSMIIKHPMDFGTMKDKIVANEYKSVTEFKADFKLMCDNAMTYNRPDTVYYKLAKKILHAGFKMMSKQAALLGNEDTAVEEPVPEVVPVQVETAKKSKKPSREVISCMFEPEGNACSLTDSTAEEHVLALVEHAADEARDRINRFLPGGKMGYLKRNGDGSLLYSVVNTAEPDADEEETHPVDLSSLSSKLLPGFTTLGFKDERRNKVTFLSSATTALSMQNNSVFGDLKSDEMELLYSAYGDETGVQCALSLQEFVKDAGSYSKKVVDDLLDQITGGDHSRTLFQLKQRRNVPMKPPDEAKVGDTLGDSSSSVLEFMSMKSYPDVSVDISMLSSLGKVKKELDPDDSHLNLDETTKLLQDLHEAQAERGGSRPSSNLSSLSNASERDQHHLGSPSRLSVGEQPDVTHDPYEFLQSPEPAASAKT
Description: Inhibition of human BRD9 (130 to 259 residues) expressed in Escherichia coli BL21 after 1 hr by BROMOscan assay

[3] = molecular target: Bromodomain-containing protein 4 (Homo sapiens, UniProt O60885); experiment: Inhibition of human BRD4 isoform long bromodomain 1 (44 to 168 residues) expressed in Escherichia coli BL21 after 1 hr by BROMOscan assay
Peregrin (Homo sapiens) = molecular target: T4, Peregrin (Homo sapiens) (UniProt P55201)
T4 sequence (whole entry): T1 sequence (P55201 whole entry)
Description: Binding affinity to BRPF1 (unknown origin) assessed as change in melting temperature at 10 uM by differential scanning fluorimetry based thermal shift assay

COc1cc(C#N)ccc1S(=O)(=O)Nc1ccc2c(c1)cc(C)c(=O)n2C
IC50 (Peregrin): 0.0031 µM
IC50 [1]: 0.046 µM
IC50 [2]: 0.52 µM
IC50 [3]: 3.7 µM
ΔTm (Peregrin (Homo sapiens)): 12.3 °C

Cn1c(=O)ccc2cc(S(=O)(=O)Nc3ccccc3)ccc21
IC50 (Peregrin): 1 µM
IC50 [1]: 7.8 µM
IC50 [2]: 9.8 µM
IC50 [3]: 37 µM
ΔTm (Peregrin (Homo sapiens)): 3.5 °C

COc1cc(C#N)ccc1S(=O)(=O)Nc1ccc2c(c1)cc(C(C)C)c(=O)n2C
IC50 (Peregrin): 0.17 µM
IC50 [1]: 3.3 µM
IC50 [2]: 9.3 µM
